{
  "source": "patent US8802597B2",
  "about": "“Herbicidal pyrimidines” (E I du Pont de Nemours and Company, priority 2003, dated 2014)",
  "assay_type_in_all_cases": "in vivo",
  "key": {"[1]": {"tested_on": "Surinam grass (Brachiaria decumbens)", "test": "Test B pre/postemergence", "conditions": "for Surinam Grass plant response rating: Postemergence; for Plant response rating, Surinam Grass: Preemergence", "procedure,_shortened": "(§1)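 Scores reflect visual comparison with untreated controls, where 0 means no effect and 100 complete control. Plants stayed 13 to 15 days in the greenhouse after pre- or postemergence treatment with compounds carried in a non-phytotoxic solvent and surfactant.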"}, "[2]": {"tested_on": "barnyardgrass (Echinochloa crus-galli)", "test": "Test B pre/postemergence", "conditions": "for Barnyardgrass plant response rating: Postemergence; for Plant response rating, Barnyardgrass: Preemergence", "procedure,_shortened": "as §1"}, "[3]": {"tested_on": "cocklebur (Xanthium strumarium)", "test": "Test B pre/postemergence", "conditions": "for Cocklebur plant response rating: Postemergence; for Plant response rating, Cocklebur: Preemergence", "procedure,_shortened": "as §1"}, "corn (Zea mays)": {"tested_on": "corn (Zea mays)", "test": "Test B pre/postemergence", "conditions": "for Corn plant response rating: Postemergence; for Plant response rating, Corn: Preemergence", "procedure,_shortened": "as §1"}, "[4]": {"tested_on": "crabgrass (Digitaria sanguinalis)", "test": "Test B pre/postemergence", "conditions": "for Crabgrass plant response rating: Postemergence; for Plant response rating, Crabgrass: Preemergence", "procedure,_shortened": "as §1"}, "[5]": {"tested_on": "giant foxtail (Setaria faberii)", "test": "Test B pre/postemergence", "conditions": "for Foxtail, Giant plant response rating: Postemergence; for Plant response rating, Foxtail, Giant: Preemergence", "procedure,_shortened": "as §1"}, "[6]": {"tested_on": "lambsquarters (Chenopodium album)", "test": "Test B pre/postemergence", "conditions": "scale 0 to 100 (0 no effect, 100 complete control); for Lambsquarters plant response rating: Postemergence", "procedure,_shortened": "as §1"}, "[7]": {"tested_on": "morningglory (Ipomoea coccinea)", "test": "Test B pre/postemergence", "conditions": "for Morningglory plant response rating: Postemergence; for Plant response rating, Morningglory: Preemergence", "procedure,_shortened": "as §1"}, "[8]": {"tested_on": "pigweed (Amaranthus retroflexus)", "test": "Test B pre/postemergence", "conditions": "for Pigweed plant response rating: Postemergence; for Plant response rating, Pigweed: Preemergence", "procedure,_shortened": "as §1"}, "[9]": {"tested_on": "velvetleaf (Abutilon theophrasti)", "test": "Test B pre/postemergence", "conditions": "for Velvetleaf plant response rating: Postemergence; for Plant response rating, Velvetleaf: Preemergence", "procedure,_shortened": "as §1"}, "[10]": {"tested_on": "wheat (Triticum aestivum)", "test": "Test B pre/postemergence", "conditions": "for Wheat plant response rating: Postemergence; for Plant response rating, Wheat: Preemergence", "procedure,_shortened": "as §1"}, "[11]": {"tested_on": "blackgrass (Alopecurus myosuroides)", "test": "Test B postemergence", "conditions": "scale 0 to 100 (0 no effect, 100 complete control)", "procedure,_shortened": "as §1"}, "wild oat (Avena fatua)": {"tested_on": "wild oat (Avena fatua)", "test": "Test B postemergence", "conditions": "scale 0 to 100 (0 no effect, 100 complete control)", "procedure,_shortened": "as §1"}, "[12]": {"tested_on": "barnyardgrass (Echinochloa crus-galli)", "test": "Test B flooded paddy test", "conditions": "Flood, scale 0 to 100", "procedure,_shortened": "(§2)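 Plants were grown to the 2-leaf stage before treatment, then kept in a greenhouse for 13 to 15 days. Injury was rated visually against untreated controls on a 0 to 100 scale, where 0 is no effect and 100 is complete control.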"}, "[13]": {"tested_on": "duck salad (Heteranthera limosa)", "test": "Test B flooded paddy test", "conditions": "Flood, scale 0 to 100", "procedure,_shortened": "as §2"}, "rice (Oryza sativa)": {"tested_on": "rice (Oryza sativa)", "test": "Test B flooded paddy test", "conditions": "Flood, scale 0 to 100", "procedure,_shortened": "as §2"}, "[14]": {"tested_on": "umbrella sedge (Cyperus difformis)", "test": "Test B flooded paddy test", "conditions": "Flood, scale 0 to 100", "procedure,_shortened": "as §2"}, "[15]": {"conditions": "62 g ai/ha, scale 0 to 100 (0 no effect, 100 complete control)"}, "[16]": {"conditions": "125 g ai/ha, scale 0 to 100 (0 no effect, 100 complete control)"}, "[17]": {"conditions": "62 g ai/ha, scale 0 to 100, 0 no effect, 100 complete control"}},
  "data": [
    {"molecule": "CCOC(=O)c1nc(-c2ccc(I)cc2)nc(N)c1Cl", "note": "[Compound 133]", "values": [
      {"measurement": "Surinam Grass plant response rating", "setting": "[1]; [15]", "result": 60},
      {"measurement": "Surinam Grass plant response rating", "setting": "[1]; [16]", "result": 70},
      {"measurement": "Plant response rating, Surinam Grass", "setting": "[1]; [17]", "result": 0},
      {"measurement": "Plant response rating, Surinam Grass", "setting": "[1]; [16]", "result": 10},
      {"measurement": "Barnyardgrass plant response rating", "setting": "[2]; [15]", "result": 70},
      {"measurement": "Barnyardgrass plant response rating", "setting": "[2]; [16]", "result": 70},
      {"measurement": "Plant response rating, Barnyardgrass", "setting": "[2]; [17]", "result": 30},
      {"measurement": "Plant response rating, Barnyardgrass", "setting": "[2]; [16]", "result": 30},
      {"measurement": "Cocklebur plant response rating", "setting": "[3]; [15]", "result": 100},
      {"measurement": "Cocklebur plant response rating", "setting": "[3]; [16]", "result": 100},
      {"measurement": "Plant response rating, Cocklebur", "setting": "[3]; [17]", "result": 20},
      {"measurement": "Plant response rating, Cocklebur", "setting": "[3]; [16]", "result": 50},
      {"measurement": "Corn plant response rating", "setting": "corn (Zea mays); [15]", "result": 70},
      {"measurement": "Corn plant response rating", "setting": "corn (Zea mays); [16]", "result": 80},
      {"measurement": "Plant response rating, Corn", "setting": "corn (Zea mays); [17]", "result": 0},
      {"measurement": "Plant response rating, Corn", "setting": "corn (Zea mays); [16]", "result": 0},
      {"measurement": "Crabgrass plant response rating", "setting": "[4]; [15]", "result": 60},
      {"measurement": "Crabgrass plant response rating", "setting": "[4]; [16]", "result": 70},
      {"measurement": "Plant response rating, Crabgrass", "setting": "[4]; [17]", "result": 40},
      {"measurement": "Plant response rating, Crabgrass", "setting": "[4]; [16]", "result": 70},
      {"measurement": "Foxtail, Giant plant response rating", "setting": "[5]; [15]", "result": 60},
      {"measurement": "Foxtail, Giant plant response rating", "setting": "[5]; [16]", "result": 70},
      {"measurement": "Plant response rating, Foxtail, Giant", "setting": "[5]; [17]", "result": 0},
      {"measurement": "Plant response rating, Foxtail, Giant", "setting": "[5]; [16]", "result": 20},
      {"measurement": "Lambsquarters plant response rating", "setting": "[6]; 62 g ai/ha", "result": 100},
      {"measurement": "Lambsquarters plant response rating", "setting": "[6]; 125 g ai/ha", "result": 100},
      {"measurement": "Plant response rating, Lambsquarters", "setting": "[6]; Preemergence, 125 g ai/ha", "result": 70},
      {"measurement": "Morningglory plant response rating", "setting": "[7]; [15]", "result": 70},
      {"measurement": "Morningglory plant response rating", "setting": "[7]; [16]", "result": 100},
      {"measurement": "Plant response rating, Morningglory", "setting": "[7]; [17]", "result": 0},
      {"measurement": "Plant response rating, Morningglory", "setting": "[7]; [16]", "result": 0},
      {"measurement": "Pigweed plant response rating", "setting": "[8]; [15]", "result": 90},
      {"measurement": "Pigweed plant response rating", "setting": "[8]; [16]", "result": 100},
      {"measurement": "Plant response rating, Pigweed", "setting": "[8]; [17]", "result": 70},
      {"measurement": "Plant response rating, Pigweed", "setting": "[8]; [16]", "result": 80},
      {"measurement": "Velvetleaf plant response rating", "setting": "[9]; [15]", "result": 90},
      {"measurement": "Velvetleaf plant response rating", "setting": "[9]; [16]", "result": 100},
      {"measurement": "Plant response rating, Velvetleaf", "setting": "[9]; [17]", "result": 50},
      {"measurement": "Plant response rating, Velvetleaf", "setting": "[9]; [16]", "result": 60},
      {"measurement": "Wheat plant response rating", "setting": "[10]; [15]", "result": 0},
      {"measurement": "Wheat plant response rating", "setting": "[10]; [16]", "result": 50},
      {"measurement": "Plant response rating, Wheat", "setting": "[10]; [17]", "result": 50},
      {"measurement": "Plant response rating, Wheat", "setting": "[10]; [16]", "result": 60},
      {"measurement": "Blackgrass plant response rating", "setting": "[11]; 62 g ai/ha", "result": 60},
      {"measurement": "Blackgrass plant response rating", "setting": "[11]; 125 g ai/ha", "result": 70},
      {"measurement": "Oat, Wild plant response rating", "setting": "wild oat (Avena fatua); 62 g ai/ha", "result": 40},
      {"measurement": "Oat, Wild plant response rating", "setting": "wild oat (Avena fatua); 125 g ai/ha", "result": 60},
      {"measurement": "Plant response rating, Barnyardgrass", "setting": "[12]; 125 g ai/ha", "result": 0},
      {"measurement": "Plant response rating, Barnyardgrass", "setting": "[12]; 500 g ai/ha", "result": 0},
      {"measurement": "Plant response rating, Ducksalad", "setting": "[13]; 125 g ai/ha", "result": 90},
      {"measurement": "Plant response rating, Ducksalad", "setting": "[13]; 500 g ai/ha", "result": 90},
      {"measurement": "Plant response rating, Rice", "setting": "rice (Oryza sativa); 125 g ai/ha", "result": 0},
      {"measurement": "Plant response rating, Rice", "setting": "rice (Oryza sativa); 500 g ai/ha", "result": 0},
      {"measurement": "Plant response rating, Sedge, Umbrella", "setting": "[14]; 125 g ai/ha", "result": 90},
      {"measurement": "Plant response rating, Sedge, Umbrella", "setting": "[14]; 500 g ai/ha", "result": 90}
    ]}
  ]
}
